Data from publication PMC7470027, “Synthesis and structure-activity relationships of novel 5-(hydroxamic acid)methyl oxazolidinone derivatives as 5-lipoxygenase inhibitors” (Journal of Enzyme Inhibition and Medicinal Chemistry, 2020).
pIC50: −log10 of the molar value. Where two headings read alike, the source gives them in different places.

Assays:
[1] = tested on: 5-LO-dependent generation of LTB4 from activated human whole blood; test: Inhibition of 5-LO product LTB4 from activated human whole blood (LPS/FMLP); assay type: cell-based; conditions: LPS-primed, FMLP-stimulated human whole blood; 95% confidence interval in brackets; read-out: Human whole blood LTB4 IC50 (CI)
Experimental: All compounds were evaluated for inhibitory activity against the 5-LO-dependent generation of LTB4 from activated human whole blood. With ethical approval from the Health Sciences Centre Ethical Committee of Kuwait University, heparinised fresh human blood samples from apparently healthy individuals of both sexes were obtained from the Kuwait Central Blood Bank. All donors gave informed consent and the work was carried out in accordance with the “Declaration of Helsinki” for experiments involving human subjects. Aliquots of 185 µl of whole blood were dispensed into each well of a 96-well culture plate containing 5 µl of the priming agent, LPS (1 µg/ml final concentration). […] After further incubation for 15 min at 37 °C, 5 µl of FMLP (1 µM final concentration) was added to stimulate LT production. The reaction was stopped 15 min later, and the supernatants were recovered by centrifugation and stored at −40 °C pending analysis of LTB4 content.
(§1) Appropriately diluted supernatants were assayed for the released products – LTs (LTB4 and LTC4), by the enzyme immunoassay (EIA) method using assay kits supplied by R&D Systems (Minneapolis, MN) and following the manufacturer’s instructions.
(§2) All data were analysed using GraphPad Prism software (GraphPad Software, San Diego, CA). […] Differences between experimental groups were first analysed by one-way ANOVA, followed by Bonferroni’s post-hoc test. A p-value of less than 0.05 was taken as statistically significant.

[2] = tested on: 5-LO product LTC4 from isolated human monocytes; test: Inhibition of 5-LO product LTC4 from isolated human monocytes (A23187); assay type: cell-based; conditions: calcium ionophore A23187, 95% confidence interval in brackets, read-out: Human monocyte LTC4 IC50 (CI)
Experimental: Mononuclear cells were first isolated from heparinised blood using the Ficoll-Hypaque gradient centrifugation method. Monocytes were subsequently purified by adherence to plastic according to standard protocols. The purity of the adherent monocytes (CD14+) was routinely confirmed by flow cytometry to be >95% and viability (by trypan blue exclusion method) was routinely >97%. Adherent monocytes were then washed and incubated in 190 µl culture medium RPMI-1640 supplemented with 100 U/ml penicillin, 100 µg/ml streptomycin and 10% heat-inactivated foetal bovine serum (Sigma-Aldrich, St Louis, MO). […] After further incubation for 15 min, the culture supernatants were recovered by centrifugation and stored at −40 °C pending LTC4 determination.
as §1, §2

[3] = tested on: 5-LO product LTC4 from allergen/IgE-activated bone marrow-derived mouse mast cells (BMMC); test: Inhibition of 5-LO product LTC4 from allergen/IgE-activated bone marrow-derived mouse mast cells (BMMC); assay type: cell-based; conditions: anti-DNP IgE/DNP-BSA-activated BMMC, 95% confidence interval in brackets, read-out: Mouse mast cell LTC4 IC50 (CI)
Experimental: Bone marrow-derived mast cells (BMMC) were generated from pathogen-free 5 to 7-weeks-old male Balb/c mice according to the method of Davis et al.[28]. Essentially, bone marrow cells were obtained by flushing the femoral bone marrow and the recovered cells cultured in RPMI 1640 medium supplemented with 10% FBS, 100 U/ml penicillin, and 100 µg/ml streptomycin, 25 mM HEPES, 1.0 mM sodium pyruvate, 0.1 mM nonessential amino acids, 0.0035% 2-mercaptoethanol, and 30 ng/ml mouse recombinant IL-3, with culture medium, replaced every 2 days. Cells were used after 4–8 weeks of culture, by which time at least 97% of the cells would have differentiated into mast cells, as routinely obtained in our laboratory.
The generated BMMCs were seeded at 5 × 10^4 cells/well in a 96-well flat-bottom culture plate and passively sensitised overnight with 0.5 µg/ml anti-DNP monoclonal IgE antibody. The cells were then washed twice to remove any unbound antibody and subsequently resuspended in reaction buffer (135 mM NaCl, 5 mM KCl, 1.8 mM CaCl2, 1 mM MgCl2, 5.6 mM glucose, 0.05% BSA and 20 mM HEPES, pH 7.4). They were then pre-incubated with the test compounds (0.001 − 30 μM) or the solvent (0.05% DMSO) for 15 min before being stimulated with the specific antigen, DNP-BSA (10–30 ng/ml). After 30 min incubation at 37 °C, the amount of LTC4 released into the supernatant was determined by ELISA as described below.
as §1, §2

recombinant human 5-LO = biological target: T1, recombinant human 5-LO (Homo sapiens, UniProt P09917); test: Direct inhibition of 5-LO activity in a cell-free assay (H2DCF-DA fluorescence); assay type: biochemical; conditions: for pIC50: cell-free, recombinant human 5-LO, 95% confidence interval in brackets
T1 sequence (P09917 1-674): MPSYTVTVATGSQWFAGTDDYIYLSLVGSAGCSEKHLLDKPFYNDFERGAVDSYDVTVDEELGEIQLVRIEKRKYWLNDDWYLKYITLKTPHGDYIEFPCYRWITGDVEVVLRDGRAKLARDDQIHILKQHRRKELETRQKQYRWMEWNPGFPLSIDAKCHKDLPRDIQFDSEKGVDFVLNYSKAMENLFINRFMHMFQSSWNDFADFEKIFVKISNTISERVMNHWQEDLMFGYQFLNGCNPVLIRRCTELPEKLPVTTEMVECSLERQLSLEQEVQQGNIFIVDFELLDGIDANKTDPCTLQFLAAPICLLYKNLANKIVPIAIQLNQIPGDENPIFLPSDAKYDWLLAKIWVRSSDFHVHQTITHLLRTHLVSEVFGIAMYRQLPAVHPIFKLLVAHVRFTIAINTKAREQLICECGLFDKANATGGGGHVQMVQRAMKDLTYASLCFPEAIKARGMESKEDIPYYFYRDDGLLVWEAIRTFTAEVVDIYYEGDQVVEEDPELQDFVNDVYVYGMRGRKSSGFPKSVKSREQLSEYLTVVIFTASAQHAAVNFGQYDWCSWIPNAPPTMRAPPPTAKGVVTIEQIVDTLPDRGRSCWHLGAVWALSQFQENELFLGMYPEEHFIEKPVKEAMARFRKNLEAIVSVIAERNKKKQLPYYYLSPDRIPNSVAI
Experimental: The assay was based on the oxidation of the dye 2′,7′-dichlorodihydrofluorescein diacetate (H2DCF-DA) to a highly fluorescent product by 5-LO enzymatic products. H2DCF-DA (60 µM) was first pre-cleaved by incubating with 450 mU/ml recombinant human 5-LO enzyme in Tris buffer (containing 50 mM Tris, pH = 7.5, 2 mM EDTA, 2 mM CaCl2, 1 mM DTT and 0.6 U/ml glutathione peroxidase) for 10 min at room temperature. […] After 10 min incubation at room temperature, the reaction was started with the addition of 50 µl of substrate solution (Tris buffer containing 20 µM ATP and 20 µM arachidonic acid (AA). After a further 20 min, the reaction was terminated with 100 µl acetonitrile. Fluorescence was read at 500 nm excitation and 520 nm emission, with Novostar^R microplate reader (BMG Labtech, Offenburg, Germany). Appropriate controls, including 100 µM nordihydroguaiaretic acid (NDGA), were included to isolate only the 5-LO-attributable, NDGA-inhibitable RFU values.
as §2

[4] = tested on: leukotriene (LT) biosynthesis / 5-LO; test: Overall activity across the four in vitro test systems (three cell-based LT release assays and 5-LO); conditions: for Activity across the in vitro test systems (in words): cell-based systems and cell-free 5-LO
Experimental: Furthermore, in order to confirm that the in vitro inhibitory activity of the compounds was not due to the direct toxic effects on the cells, the effect of the compounds on the viability of isolated human monocytes after 3 h and 24 h treatment was performed. Finally, in vivo anti-inflammatory studies were performed using the zymosan-induced peritoneal inflammation model in mice, which is a well-known model in which the LTs are known to play a critical role[26].
The inhibitory activity data for the tested compounds obtained in three cell-based in vitro test systems - LTB4 release from human whole blood, LTC4 release from isolated human monocytes and LTC4 release from IgE/antigen-activated mouse mast cells, are shown in Table 1. Similar data on the direct inhibitory effect on the enzymatic activity of recombinant human 5-LO, together with the calculated Clog P (log of partition coefficient) values, which is an indication of the lipophilicity of each compound, are also shown in Table 1.

[5] = read-out: Direct inhibition of 5-LO activity. IC50 (CI)

pIC50 [1]	pIC50 [2]	pIC50 [3]	pIC50 (recombinant human 5-LO; [5])	Inhibition of isolated 5-LO enzyme activity (in words) (recombinant human 5-LO; cell-free experiments)	pIC50 ([2]; Monocyte)	pIC50 ([3]; Mus musculus)	pIC50 (recombinant human 5-LO)	melting point	pIC50 ([4]; summary statements, in vitro test systems, read-out: IC50 (test system not specified / across test systems))	SMILES	Activity across the in vitro test systems (in words) [4]
5.89	5.12	5.06	5.46	–	–	–	–	–	–	O=C(C1CC1)N(O)C[C@H]1CN(c2ccc(N3CCOCC3)c(F)c2)C(=O)O1 [PH-211]	active in all four test systems
5.82	5.15	5.48	4.67	very weak	–	–	–	–	–	CCCCCC(=O)ON(C[C@H]1CN(c2ccc(N3CCOCC3)c(F)c2)C(=O)O1)C(=O)CCCCC [PH-246]	–
5.66	–	–	–	–	5.49	5.55	5.48	–	–	CCCCC(=O)N(O)C[C@H]1CN(c2ccc(N3CCOCC3)c(F)c2)C(=O)O1 [PH-241, (R)-N-((3-(3-fluoro-4-morpholinophenyl)-2-oxooxazolidin-5-yl)methyl)-N-hydroxypentanamide]	active in all four test systems
5.64	–	–	–	–	5.60	5.54	5.47	118.5 to 120.5 °C	–	CCCCCC(=O)N(O)C[C@H]1CN(c2ccc(N3CCOCC3)c(F)c2)C(=O)O1 [PH-247, (R)-N-((3-(3-fluoro-4-morpholinophenyl)-2-oxooxazolidin-5-yl)methyl)-N-hydroxyhexanamide]	active in all four test systems
5.72	–	–	–	–	5.62	6.70	5.80	–	> 6.00	CCCCCCCC(=O)N(O)C[C@H]1CN(c2ccc(N3CCOCC3)c(F)c2)C(=O)O1 [PH-251, (R)-N-((3-(3-fluoro-4-morpholinophenyl)-2-oxooxazolidin-5-yl)methyl)-N-hydroxyoctanamide]	active in all four test systems
6.15	–	–	–	–	6.30	6.40	–	–	–	CC(c1cc2ccccc2s1)N(O)C(N)=O (racemic) [Zileuton, (±)1–(1-(benzo[b]thiophen-2-yl)-ethyl)-1-hydroxyurea, reference compound]	–
5.26	–	–	–	–	–	–	–	–	–	O=C(C1CCCC1)N(O)C[C@H]1CN(c2ccc(N3CCOCC3)c(F)c2)C(=O)O1 [PH-244, (R)-N-((3-(3-fluoro-4-morpholinophenyl)-2-oxooxazolidin-5-yl)methyl)-N-hydroxycyclopentanecarboxamide]	–
5.47	–	–	–	–	–	–	–	–	–	O=C(C1CCC1)N(O)C[C@H]1CN(c2ccc(N3CCOCC3)c(F)c2)C(=O)O1 [PH-245, (R)-N-((3-(3-fluoro-4-morpholinophenyl)-2-oxooxazolidin-5-yl)methyl)-N-hydroxycyclobutanecarboxamide]	–
< 4.30	–	–	–	–	< 4.30	< 4.30	< 4.52	89 to 90 °C	–	CC(C)CC(=O)ON(C[C@H]1CN(c2ccc(N3CCOCC3)c(F)c2)C(=O)O1)C(=O)CC(C)C [PH-237, (R)-N-((3-(3-fluoro-4-morpholinophenyl)-2-oxooxazolidin-5-yl)methyl)-3-methyl-N-((3-methylbutanoyl)oxy)butanamide]	inactive in both systems
5.46	–	–	–	–	5.10	5.51	5.33	122 to 124.5 °C	–	CC(C)CC(=O)N(O)C[C@H]1CN(c2ccc(N3CCOCC3)c(F)c2)C(=O)O1 [PH-239, (R)-N-((3-(3-fluoro-4-morpholinophenyl)-2-oxooxazolidin-5-yl)methyl)-N-hydroxy-3-methylbutanamide]	active in all four test systems
